Where “and” joins values, the source holds several entries; their conditions need not be identical. Equal values may be shown once. Read-outs that look alike come from different tables or passages of the source.
Legend:
Format in all cases: cell-based
[1] = tested on: QGY-7703 cells; assay: TUNEL apoptosis assay, QGY-7703; settings: QGY-7703, 10 μM
Method: HCC cells were plated 24 h prior to incubation with FQI1. At the indicated time points, cells were analyzed using the FragEL™ DNA fragmentation kit (Calbiochem) according to the manufacturer's protocol. Flow cytometry was performed using a FACS caliber (Becton Dickinson) and analyzed with Cell Quest software.

[2] = tested on: A549 cells; assay: Cell proliferation assay (MTS), A549; settings: for GI50: MTS
Method: (§1) Cells were plated at 3×10^4 cells/mL, A549 and HeLa, and 1×10^4 cells/mL, NIH/3T3, in 96-well plates and incubated for 24 h to allow for cell adhesion. LSF-library compounds were dissolved in DMSO, serial diluted in appropriate medium and added to cells in triplicate (2 plates). DMSO was added to control wells at a final concentration of 1%. After 72 h incubation in the presence of compound, confluent cells were assayed for growth proliferation with CellTiter 96® AQueous One Solution Cell Proliferation Assay (MTS) (Promega) according to the manufacturer's protocol. Plates were read at 490 nm on a microplate reader, and IC50 values were determined as the percentage of compound-treated cell growth to control cell growth. HCC cells—one hour after plating HCC cells onto 96-well plates, compound or vehicle (DMSO) was added to the desired concentrations, keeping DMSO at 0.5%. At indicated time points, cell viability was assayed using the CellTiter 96® Non-Radioactive Cell Proliferation Assay (MTT) (Promega).
(§2) QGY-7703 and A549 cells were cultured at 37° C. in 5% CO2 in DMEM (Dulbecco's modification of Eagle's Medium; Corning) supplemented with 10% Fetal Bovine Serum (FBS; Invitrogen). NIH-3T3 cells were cultured at 37° C. in 5% CO2 in DMEM supplemented with 10% Fetal Calf Serum (FCS; Atlanta Biologicals). For cell viability assays, 1,500 cells were seeded in 96-well plates and treated with FQI-34 or vehicle (DMSO) at appropriate concentrations (DMSO at 1%) after 20 hours. After 72-hour incubation with compound or vehicle, cell growth was assessed via the Promega CellTiter 96® AQueous One Solution Cell Proliferation Assay, a colorimetric method to determine the number of viable cells. 20 μL of the CellTiter 96® AQueous One Solution Reagent was added directly into cultured wells and incubated for one hour, after which the absorbance at 490 nm was read with a 96-well plate reader (Opys MR Microplate Reader). The CellTiter 96® AQueous One Solution contains an MTS tetrazolium compound which is bioreduced by cells into a colored formazan product that is soluble in tissue culture medium. The quantity of formazan product as measured by absorbance is directly proportional to the number of living cells in culture. GI50 values were determined from plots of the percentage of compound-treated cell growth to vehicle cell growth vs. compound concentration (GraphPad Prism; non-linear regression 4-parameter curve fit with variable slope).

[3] = tested on: NIH/3T3 cells; assay: Cell proliferation assay (MTS), NIH/3T3; settings: Mus musculus, NIH3T3
Method: as §1, §2

[4] = tested on: USF; assay: USF-dependent reporter assay
Method: USF-dependent reporter assays were performed with FQI1 only. Averages with standard deviation (SD) derive from 3-4 independent experiments. […] “−LSF”: translation extract with no programmed LSF. […] Myc-LSF-HA expression was induced with the small molecule inducer RSL1. In induced cells, FQI1 or vehicle was added for the final 12 h of myc-LSF-HA induction.

[5] = target: T1, LSF (Homo sapiens, UniProt Q12800); assay: LSF-dependent luciferase reporter assay in NIH 3T3 cells; set-up: expressed in transfected cells; host or cells: NIH 3T3
T1 sequence (Q12800 1-502): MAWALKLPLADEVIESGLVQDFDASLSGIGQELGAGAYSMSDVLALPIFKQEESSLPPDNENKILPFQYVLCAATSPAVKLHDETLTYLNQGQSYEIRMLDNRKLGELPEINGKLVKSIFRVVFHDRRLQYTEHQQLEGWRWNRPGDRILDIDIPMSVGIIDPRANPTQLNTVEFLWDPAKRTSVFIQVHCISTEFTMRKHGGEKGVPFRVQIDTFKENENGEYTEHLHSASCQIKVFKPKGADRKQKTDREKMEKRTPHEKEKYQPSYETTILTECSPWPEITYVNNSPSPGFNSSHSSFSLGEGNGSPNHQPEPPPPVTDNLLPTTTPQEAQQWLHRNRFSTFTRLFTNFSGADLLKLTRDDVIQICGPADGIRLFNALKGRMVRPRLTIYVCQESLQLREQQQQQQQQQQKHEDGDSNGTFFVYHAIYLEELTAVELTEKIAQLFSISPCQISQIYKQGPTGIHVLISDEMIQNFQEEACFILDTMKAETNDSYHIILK
Method: NIH 3T3 cells were transfected with the expression construct pEF1α-LSF, a LSF expression vector^6,20; the reporter construct pGL3B-WT4E1b, a firefly luciferase reporter vector driven by LSF^12; phRL-TK, a control renilla luciferase reporter vector; and pEFGP, essentially as previously described^12. Five hours after transfection, either vehicle (DMSO) or FQI compound was added, keeping DMSO at 0.5%. Cell extracts were harvested 36 hours post-transfection and firefly and renilla luciferase activities measured via a dual luciferase assay (Promega). Five μl of extract was mixed with 30 μl of luciferase assay reagent (Promega), and luminescence measured for 10 seconds using a 20/20n luminometer (Turner Biosystems). Subsequently, 30 μl of Stop & Glo reagent (Promega) was added, and luminescence also measured for 10 seconds. LSF transactivation activity is given as relative luciferase activity, the ratio of firefly to renilla activities.
NIH-3T3 cells were cultured at 37° C. in 5% CO2 in DMEM (Dulbecco's modification of Eagle's Medium; Corning) supplemented with 10% FCS (FCS; Atlanta Biologicals). Approximately 24 hours prior to transfection, 200,000 cells were plated in 35 mm dishes. After 24 hours, cells were ˜70% confluent, and were transfected for 5 hours with pEF1α-LSF, the reporter construct pGL3B-WT4E1b, phRLTK, and pEFGP (Grant, T. J. et al. Antiproliferative small-molecule inhibitors of transcription factor LSF reveal oncogene addiction to LSF in hepatocellular carcinoma. PNAS (2012), 109, 1-6). Vehicle (DMSO) or FQI-34 was then added, keeping the DMSO at 0.5%. Cell extracts were harvested 36 h post-transfection, and firefly and renilla luciferase activities were measured via a dual luciferase assay (Promega Dual-Luciferase Reporter Assay System). Relative luciferase activity represents firefly luciferase activity normalized to that of renilla luciferase in each extract. IC50 values were determined from plots of normalized luciferase activity vs. compound concentration (Prism GraphPad; non-linear regression 4-parameter curve fit with variable slope).

| SMILES | apoptosis in flow cytometric TUNEL assay [1] | GI50 ([2]; Homo sapiens, 72 h, read-out: GI50 (μM) A549) | IC50 ([2]; Homo sapiens, Example 7, FIG. 8, read-out: growth inhibition of A549 Cell Line IC50) | GI50 ([3]; 72 h, MTS, read-out: GI50 (μM) NIH/3T3) | IC50 ([3]; Example 7, FIG. 8, read-out: growth inhibition of NIH/3T3 Cell Line IC50) | GI50 ([3]; Table 3, read-out: GI50 (μM) NIH 3T3) | transactivation of a USF-dependent reporter by USF [4] | IC50 ([5]; NIH 3T3 cells, dual luciferase, ranges where few concentrations tested, read-out: IC50 (μM) LSF-dependent reporter assat NIH 3T3) | GI50 ([2]; Homo sapiens, 1,500 cells seeded, 72-hour incubation, read-out: GI50 in A549 cells) | GI50 ([3]; 1,500 cells seeded, 72-hour incubation, MTS, read-out: GI50 in NIH-3T3 cells) | IC50 ([5]; Table 5, read-out: LSF-reporter assay IC50) | IC50 ([5]; Table 8, read-out: LSF-reporter assay IC50) | IC50 ([5]; dual-luciferase reporter, NIH-3T3, FIG. 12, read-out: LSF-Target affinity IC50) |
| --- | --- | --- | --- | --- | --- | --- | --- | --- | --- | --- | --- | --- | --- |
| CCOc1ccccc1C1CC(=O)Nc2cc3c(cc21)OCO3 (racemic) [FQI1, 8-(2-ethoxyphenyl)-7,8-dihydro-[1,3]dioxolo[4,5-g]quinolin-6(5H)-one] | 90% | 6.3 µM | 6300 ± 1100 nM | 3 µM | 3000 ± 850 nM | 3 ± 0.9 µM | unaffected | ~2.4 µM and 2.4 µM |  |  |  |  |  |
| CCOc1cc(N(C)C)ccc1C1CC(=O)Nc2cc3c(cc21)OCO3 (stereo not shown) [FQI-34, 8-(4-(dimethylamino)-2-ethoxyphenyl)-7,8-dihydro-[1,3]dioxolo[4,5-g]quinolin-6(5H)-one] |  |  |  |  |  |  |  |  | 1.8 µM | 1.49 µM | 0.726 µM | 0.726 µM | 0.59 µM |

From US10392398B2, “Inhibitors of Late SV40 Factor (LSF) as cancer chemotherapeutics” (TRUSTEES OF BOSTON UNIVERSITY, priority 2010, dated 2019)
